Data: patent US20260374756A1, “HETEROCYCLIC COMPOUNDS AS INHIBITORS OF MONOACYLGLYCEROL LIPASE (MAGL)” (Hoffmann-La Roche Inc., priority 2022, published 2026)

The compounds below were run against T1, hMAGL (Homo sapiens, UniProt Q99685) (assay: 2-AG assay: MAGL inhibition, hydrolysis of 2-arachidonoylglycerol to arachidonic acid followed by mass spectrometry).
T1 sequence (Q99685 1-303): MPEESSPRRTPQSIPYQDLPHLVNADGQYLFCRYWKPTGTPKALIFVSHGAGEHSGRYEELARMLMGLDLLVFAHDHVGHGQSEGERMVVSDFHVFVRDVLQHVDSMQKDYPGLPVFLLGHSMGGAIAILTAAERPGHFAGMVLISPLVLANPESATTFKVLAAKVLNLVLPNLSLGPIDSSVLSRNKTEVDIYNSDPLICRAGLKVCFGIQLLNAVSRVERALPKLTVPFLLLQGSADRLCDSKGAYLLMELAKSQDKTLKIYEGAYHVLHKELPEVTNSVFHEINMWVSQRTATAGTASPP
Type: biochemical
How it was run: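 Read-out is LC-MS/MS of arachidonic acid released from 2-arachidonoylglycerol (8 μM final), normalised to d8-arachidonic acid internal standard after acetonitrile quench. Enzyme […] and compound were pre-mixed 15 min, then reacted 30 min, both at RT, in Tris/EDTA buffer with 0.01% Tween-20 and 2.5% DMSO.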

SMILES | IC50
O=C(N1CC2(CC(Cc3cnn(CC(F)(F)F)c3)C2)C1)N1CC2(CC(n3cnc(C4(O)CC4)n3)C2)C1 [Example 291, [6-[3-(1-hydroxycyclopropyl)-1,2,4-triazol-1-yl]-2-azaspiro[3.3]heptan-2-yl]-[6-[[1-(2,2,2-trifluoroethyl)pyrazol-4-yl]methyl]-2-azaspiro[3.3]heptan-2-yl]methanone] | 10.8 nM
Cn1cc(CC2CC3(C2)CN(C(=O)N2CC4(CC(n5cnc(C6(O)CC6)n5)C4)C2)C3)c(C(F)(F)F)n1 [Example 6, [6-[3-(1-hydroxycyclopropyl)-1,2,4-triazol-1-yl]-2-azaspiro[3.3]heptan-2-yl]-[6-[[1-methyl-3-(trifluoromethyl)pyrazol-4-yl]methyl]-2-azaspiro[3.3]heptan-2-yl]methanone] | 4.93 nM
O=C(N1CC2(CC(Cc3cc(C(F)F)n[nH]3)C2)C1)N1CC2(CC(n3cnc(C(F)F)n3)C2)C1 [Example 334, [6-[[3-(difluoromethyl)-1H-pyrazol-5-yl]methyl]-2-azaspiro[3.3]heptan-2-yl]-[6-[3-(difluoromethyl)-1,2,4-triazol-1-yl]-2-azaspiro[3.3]heptan-2-yl]methanone] | 9.74 nM
O=C(N1CC2(CC(Cc3cc(C(F)(F)F)n[nH]3)C2)C1)N1CC2(CC(n3cnc(C4(O)CC4)n3)C2)C1 [Example 299, [6-[3-(1-hydroxycyclopropyl)-1,2,4-triazol-1-yl]-2-azaspiro[3.3]heptan-2-yl]-[6-[[3-(trifluoromethyl)-1H-pyrazol-5-yl]methyl]-2-azaspiro[3.3]heptan-2-yl]methanone] | 1.83 nM
O=C(N1CC2(CCN(Cc3ncc(C(F)F)s3)CC2)C1)N1CC2(CC(c3cc(C4CC4)n[nH]3)C2)C1 [Example 30, [6-(3-cyclopropyl-1H-pyrazol-5-yl)-2-azaspiro[3.3]heptan-2-yl]-[7-[[5-(difluoromethyl)thiazol-2-yl]methyl]-2,7-diazaspiro[3.5]nonan-2-yl]methanone] | 3.59 nM

Other lines, results leading:

IC50 | SMILES
4.09 nM | Cc1cc(C(F)(F)F)nn1CC1CC2(C1)CN(C(=O)N1CC3(CC(n4cnc(C5CC5)n4)C3)C1)C2 [Example 69, [6-(3-cyclopropyl-1,2,4-triazol-1-yl)-2-azaspiro[3.3]heptan-2-yl]-[6-[[5-methyl-3-(trifluoromethyl)pyrazol-1-yl]methyl]-2-azaspiro[3.3]heptan-2-yl]methanone]
2090 nM | O=C(N1CC2(CC(n3cnc(C4(O)CC4)n3)C2)C1)N1CC2(CN(Cc3nnc(C(F)(F)F)s3)C2)C1 [Example 84, [6-[3-(1-hydroxycyclopropyl)-1,2,4-triazol-1-yl]-2-azaspiro[3.3]heptan-2-yl]-[6-[[5-(trifluoromethyl)-1,3,4-thiadiazol-2-yl]methyl]-2,6-diazaspiro[3.3]heptan-2-yl]methanone]
13.6 nM | CC(C)(C)n1nccc1CN1CC2(C1)CN(C(=O)N1CC3(CC(n4cnc(C5CC5)n4)C3)C1)C2 [Example 276, [6-[(2-tert-butylpyrazol-3-yl)methyl]-2,6-diazaspiro[3.3]heptan-2-yl]-[6-(3-cyclopropyl-1,2,4-triazol-1-yl)-2-azaspiro[3.3]heptan-2-yl]methanone]
1.78 nM | O=C(N1CC2(CC(n3cnc(C(F)(F)F)n3)C2)C1)N1CC2(CN(Cc3ncc(C(F)(F)F)s3)C2)C1 [Example 149]
135 nM | CCc1nsc(CN2CC3(C2)CN(C(=O)N2CC4(CC(n5cnc(C6CC6)n5)C4)C2)C3)n1 [Example 287, [6-(3-cyclopropyl-1,2,4-triazol-1-yl)-2-azaspiro[3.3]heptan-2-yl]-[6-[(3-ethyl-1,2,4-thiadiazol-5-yl)methyl]-2,6-diazaspiro[3.3]heptan-2-yl]methanone]
0.17 nM | O=C(N1CC2(CC(Cc3cc(C(F)F)n[nH]3)C2)C1)N1CC2(CC(n3cnc(C4CC4)n3)C2)C1 [Example 296, [6-(3-cyclopropyl-1,2,4-triazol-1-yl)-2-azaspiro[3.3]heptan-2-yl]-[6-[[3-(difluoromethyl)-1H-pyrazol-5-yl]methyl]-2-azaspiro[3.3]heptan-2-yl]methanone]
